# Where two headings read alike, the source gives them in different places.
# Tests used:
# VMAT2 = VMAT2 (Rattus norvegicus (Rat), UniProt Q01827); experiment: [3H]Dopamine ([3H]DA) uptake assay, vesicular preparation; type: biochemical
# [1] = Microsomal stability assay, human liver microsomes; details: for CLint scaled at 0.08 µM / half-life at 0.08 µM: both, human, pooled liver microsomes; for CLint scaled at 0.08 µM: pH 7.4, Microsomal stability assays: Clearance; for half-life at 0.08 µM: pH 7.4, Microsomal stability assays: Half-life
# Procedure: (§1) Each plate holds triplicate samples of two controls (0.4 mM) and up to 14 compounds (0.08 mM) in rat and human liver microsomes. Aliquots of each well of the plate (175 μl of each well) were transferred from the master plate into 5 assay plates. For 0-hr time point, pre-cooled (4° C.) internal standard (437.5 μL, 2 μM caffeine in methanol) was added to the first plate before the reaction starts. NADPH regenerating system solution A (6.05 ml, Fisher Scientific, #NC9255727) was combined with NADPH regenerating system solution B (1.21 ml, Fisher Scientific, #NC9016235) in potassium phosphate buffer (15.8 ml, 0.1 M, pH 7.4, 37° C.). The resulting NADPH solution (43.8 μl) was added to each well of all the 96-well assay plates and mixed with pipette briefly making the final protein and compound concentrations respectively: 0.5 mg/ml, 0.08 μM (0.4 μM for controls). Plates were sealed, and all plates except the 0-hr plate were incubated at 37° C., shaken at a speed of 60 rpm. A single assay plate was tested at each time point: 0.5 hr, 1 hr, 2 hr, and 4 hr. At each time point, 437.5 μL of pre-cooled internal standard was added each well of the plate to quench the reaction. […] 120 μl supernatant was transferred to a 96-well plate, centrifuged again and analyzed by UPLC-MS (Waters Inc., Milford, MA). The compounds and internal standard were detected by selected ion recording (SIR).
# (§2) The amount of material was measured as a ratio of peak area to the internal standard and graphed. Using the slope from the initial linear portion of this curve, the degradation rate constant is calculated using equation [1].
# [2] = Microsomal stability assay, rat liver microsomes; details: for CLint scaled at 0.08 µM / half-life at 0.08 µM: female, Sprague-Dawley, rat, liver microsomes; for CLint scaled at 0.08 µM: pH 7.4, Microsomal stability assays: Clearance; for half-life at 0.08 µM: pH 7.4, Microsomal stability assays: Half-life
# Procedure: as §1, §2
# [3] = [3H]DA uptake (Ki) VMAT2, rat striatal synaptic vesicles
# [4] = [3H]DA uptake, rat, read-out: VMAT2 (rat) Inhibition: Mean Ki ± Standard Deviation
SMILES,CLint scaled at 0.08 µM [1],half-life at 0.08 µM [1],CLint scaled at 0.08 µM [2],half-life at 0.08 µM [2],also measured
C[C@H](Cc1ccc(Br)cc1)NCCCc1ccccc1 [Compound 12],,,,,Ki (VMAT2; [3]): 6 ± 1 nM
C[C@@H](Cc1ccc(Br)cc1)NCCCc1ccccc1 [Compound 13],,,,,Ki (VMAT2; [3]): 32 ± 4 nM
COc1ccc(C[C@@H](C)NCCCc2ccccc2)cc1 [Compound 27],,,,,Ki (VMAT2; [3]): 45 ± 4 nM
COc1ccc(C[C@H](C)NCCCc2ccccc2)cc1 [Compound 28],,,,,Ki (VMAT2; [3]): 20 ± 1 nM
CC(Cc1ccc(F)cc1)NCCCc1ccc2[nH]ccc2c1 (centres unmarked) [Compound 56],106 mL/min/kg,12 min,,,
CC(Cc1ccc(F)c(F)c1)NCCCc1ccc(N)cc1 (centres unmarked) [Compound 61],9.6 mL/min/kg,132 min,,,
CC(Cc1ccc(Cl)cc1)NCCCc1ccc(N)cc1 (centres unmarked) [Compound 63],11.6 mL/min/kg,108 min,,,
CC(C)Nc1ccc(CCCNC(C)Cc2ccc(F)cc2)cc1 (centres unmarked) [Compound 65],,,,,Ki (VMAT2; [4]): 112 ± 16.8 nM
CC(=O)Nc1ccc(CCCNC(C)Cc2ccc(F)cc2)cc1 (centres unmarked) [Compound 67],< 10 mL/min/kg,> 240 min,,,
CC(Cc1ccc(F)cc1)NCCCc1ccc(NC=O)cc1 (centres unmarked) [Compound 71],,,97.2 mL/min/kg,30 min,
CC(Cc1ccc(NC=O)cc1)NCCCc1ccccc1 (centres unmarked) [Compound 78],,,167 mL/min/kg,18 min,
FCC(Cc1ccc(Br)cc1)NCCCc1ccc(F)cc1 (centres unmarked) [Compound 86],18.1 mL/min/kg,66 min,,,
CC(Cc1ccc(F)cc1)NCCCc1c[nH]c2ccccc12 (centres unmarked) [Compound 92],112 mL/min/kg,12 min,,,
CC(Cc1ccc(F)cc1)NCCCc1ccc(NC2CCC2)cc1 (centres unmarked) [Compound 93],,,,,Ki (VMAT2; [4]): 129 ± 7.41 nM
CC(Cc1ccc(F)cc1)NCCCc1ccc(N)cc1 (centres unmarked) [Compound 95],12.9 mL/min/kg,96 min,,,
CC(Cc1ccc(F)c(F)c1)NCCCc1ccncc1 (centres unmarked) [Compound 97],11.9 mL/min/kg,102 min,,,
FCC(Cc1ccccc1)NCCCc1ccccc1 (centres unmarked) [Compound 99],119 mL/min/kg,12 min,,,
FCC(Cc1ccccc1)NCCCc1ccc(F)cc1 (centres unmarked) [Compound 102],33.9 mL/min/kg,36 min,,,
CC(Cc1ccc(N)cc1)NCCCc1ccncc1 (centres unmarked) [Compound 103],,,,,Ki (VMAT2; [4]): 378 ± 30 nM
CC(Cc1ccc(N)cc1)NCCCc1ccccc1 (centres unmarked) [Compound 106],,,17.9 mL/min/kg,156 min,
Nc1ccc(CCCNC(CF)Cc2ccc(F)cc2)cc1 (centres unmarked) [Compound 107],,,82.2 mL/min/kg,36 min,Ki (VMAT2; [4]): 105 ± 0.189 nM
Nc1ccc(CCCNC(CF)Cc2ccc(F)cc2)cc1 (centres unmarked) [Compound 108],9.6 mL/min/kg,132 min,,,
CC(Cc1ccc([N+](=O)[O-])cc1)NCCCc1ccncc1 (centres unmarked) [Compound 113],6.3 mL/min/kg,198 min,,,Ki (VMAT2; [4]): 157 ± 72.5 nM
CC(Cc1ccc([N+](=O)[O-])cc1)NCCCc1ccncc1 (centres unmarked) [Compound 114],,,95.9 mL/min/kg,30 min,
CC(Cc1ccc([N+](=O)[O-])cc1)NCCCc1ccccc1 (centres unmarked) [Compound 116],,,> 400 mL/min/kg,< 6 min,

SMILES,CLint scaled at 0.08 µM [1],half-life at 0.08 µM [1],CLint scaled at 0.08 µM [2],half-life at 0.08 µM [2],also measured
CC(Cc1ccc([N+](=O)[O-])cc1)NCCCc1ccc(Br)cc1 (centres unmarked) [Compound 122],,,> 400 mL/min/kg,< 6 min,
CC(Cc1ccc(F)cc1)NCCCc1ccccc1 (centres unmarked) [Compound 127],,,> 400 mL/min/kg,< 6 min,
OCC(Cc1ccc(F)cc1)NCCCc1ccncc1 (centres unmarked) [Compound 128],,,< 10 mL/min/kg,> 240 min,
CC(Cc1ccc(F)cc1)NCCCn1cccn1 (centres unmarked) [Compound 132],,,180 mL/min/kg,18 min,Ki (VMAT2; [4]): 709 ± 172 nM
CC(Cc1ccc(F)cc1)NCCCn1cccn1 (centres unmarked) [Compound 133],< 5.2 mL/min/kg,> 240 min,,,
CC(Cc1ccc(F)cc1)NCCCn1ccnc1 (centres unmarked) [Compound 134],< 5.2 mL/min/kg,> 240 min,,,Ki (VMAT2; [4]): 517 ± 112 nM
CC(Cc1ccc(F)cc1)NCCCn1ccnc1 (centres unmarked) [Compound 135],,,< 7 mL/min/kg,> 240 min,
CC(C)C(Cc1ccc(F)cc1)NCCCc1ccccc1 (centres unmarked) [Compound 136],,,,,Ki (VMAT2; [4]): 386 ± 66.4 nM
CS(=O)(=O)c1ccc(CCCNC(CF)Cc2ccc(F)cc2)cc1 (centres unmarked) [Compound 137],,,,,Ki (VMAT2; [4]): 182 ± 56.7 nM
CC(Cc1ccc(F)cc1)NCCCc1ccc(S(C)(=O)=O)cc1 (centres unmarked) [Compound 138],< 5.2 mL/min/kg,> 240 min,,,Ki (VMAT2; [4]): 146 ± 41.9 nM
CC(Cc1ccc(F)cc1)NCCCc1ccc(S(C)(=O)=O)cc1 (centres unmarked) [Compound 139],,,< 7 mL/min/kg,> 240 min,
CC(C)C(Cc1ccc(F)cc1)NCCCc1ccc(Br)cc1 (centres unmarked) [Compound 140],14.4 mL/min/kg,84 min,,,Ki (VMAT2; [4]): 132 ± 29.5 nM
CC(C)C(Cc1ccc(F)cc1)NCCCc1ccc(Br)cc1 (centres unmarked) [Compound 141],,,> 450 mL/min/kg,< 6 min,
CC(Cc1ccc(F)cc1)NCCCc1ccc([S+](C)[O-])cc1 (centres unmarked) [Compound 144],,,,,Ki (VMAT2; [4]): 178 ± 78.9 nM
FCC(Cc1ccc(F)cc1)NCCCc1ccc(Cl)cc1 (centres unmarked) [Compound 151],22.6 mL/min/kg,54 min,,,
FCC(Cc1ccc(F)cc1)NCCCc1ccc(F)cc1 (centres unmarked) [Compound 153],20.5 mL/min/kg,60 min,,,
CC(Cc1ccc(F)cc1)NCCCc1ccc(N(C)C)cc1 (centres unmarked) [Compound 156],182 mL/min/kg,,,,Ki (VMAT2; [4]): 118 ± 25.8 nM; Microsomal stability assays: Half-life [1]: 6 min
CC(Cc1ccc(F)cc1)NCCCc1ccc(N(C)C)cc1 (centres unmarked) [Compound 157],,,> 400 mL/min/kg,< 6 min,
CCOC(=O)c1ccc(CCCNC(C)Cc2ccc(F)cc2)cc1 (centres unmarked) [Compound 159],216 mL/min/kg,,,,Microsomal stability assays: Half-life [1]: 6 min
CC(Cc1ccc(F)cc1)NCCCc1ccc([N+](=O)[O-])cc1 (centres unmarked) [Compound 161],< 5.2 mL/min/kg,> 240 min,,,
CC(Cc1ccc(F)cc1)NCCCc1ccnc2ccccc12 (centres unmarked) [Compound 163],,,> 400 mL/min/kg,< 6 min,
CC(Cc1ccc(F)cc1)NCCCc1ccc(-c2ccnn2C)cc1 (centres unmarked) [Compound 167],,,111 mL/min/kg,24 min,
CC(Cc1ccncc1)NCCCc1ccc(Br)cc1 (centres unmarked) [Compound 169],,,200 mL/min/kg,12 min,
CC(Cc1ccc(-c2cncnc2)cc1)NCCCc1ccc(Cl)cc1 (centres unmarked) [Compound 171],75.2 mL/min/kg,18 min,,,
COc1ccc(CCCNC(C)Cc2ccncc2)cc1 (centres unmarked) [Compound 173],,,126 mL/min/kg,24 min,

SMILES,CLint scaled at 0.08 µM [1],half-life at 0.08 µM [1],CLint scaled at 0.08 µM [2],half-life at 0.08 µM [2],also measured
CC(Cc1ccc(Br)cc1)NCCCc1ccncc1 (centres unmarked) [Compound 175],< 5.2 mL/min/kg,> 240 min,,,
CC(Cc1ccc(F)cc1)NCCCc1ccncc1 (centres unmarked) [Compound 177],< 5.2 mL/min/kg,> 240 min,,,
CC(Cc1ccncc1)NCCCc1ccc(O)cc1 (centres unmarked) [Compound 179],< 5.2 mL/min/kg,> 240 min,,,
CC(Cc1ccc(Br)cc1)NCCCc1ccc(I)cc1 (centres unmarked) [Compound 181],< 5.2 mL/min/kg,> 240 min,,,
CC(Cc1ccc(F)cc1)NCCCc1ccc(I)cc1 (centres unmarked) [Compound 183],< 5.2 mL/min/kg,> 240 min,,,
CC(Cc1ccc(Br)cc1)NCCCc1ccc(Cl)cc1 (centres unmarked) [Compound 185],< 5.2 mL/min/kg,> 240 min,,,
CC(Cc1ccncc1)NCCCc1ccc(F)cc1 (centres unmarked) [Compound 187],,,150 mL/min/kg,18 min,
CC(Cc1ccc(F)cc1)NCCCc1ccc(Cl)cc1 (centres unmarked) [Compound 189],,,> 400 mL/min/kg,< 6 min,
CC(Cc1ccc(F)cc1)NCCCc1ccc(F)cc1 (centres unmarked) [Compound 191],,,195 mL/min/kg,12 min,
CC(Cc1ccc(-c2cccnc2)cc1)NCCCc1ccc(F)cc1 (centres unmarked) [Compound 193],144 mL/min/kg,,,,Microsomal stability assays: Half-life [1]: 6 min
CC(Cc1ccccc1)NCCCc1ccc(C(F)(F)F)cc1 (centres unmarked) [Compound 195],< 5.2 mL/min/kg,> 240 min,,,
CC(Cc1ccc(-c2cncnc2)cc1)NCCCc1ccc(F)cc1 (centres unmarked) [Compound 197],40.4 mL/min/kg,30 min,,,
COc1ccc(CCC(C)NC(C)Cc2ccccc2)cc1 (centres unmarked) [Compound 198],,,414 mL/min/kg,,Ki (VMAT2; [4]): 152 ± 25.6 nM; Microsomal stability assays: Half-life [2]: 6 min
COc1ccc(CCC(C)NC(C)Cc2ccccc2)cc1 (centres unmarked) [Compound 199],> 400 mL/min/kg,< 6 min,,,
CC(Cc1ccc(Br)cc1)NCCCc1ccc(F)cc1 (centres unmarked) [Compound 201],< 5.2 mL/min/kg,> 240 min,,,
CC(Cc1ccccc1)NCCCc1ccc(-c2cncnc2)cc1 (centres unmarked) [Compound 203],,,248 mL/min/kg,12 min,
CC(Cc1ccccc1)NCCCc1ccncc1 (centres unmarked) [Compound 205],,,90.6 mL/min/kg,30 min,
CC(Cc1ccccc1)NCCCc1ccc(-c2cccs2)cc1 (centres unmarked) [Compound 206],,,,,Ki (VMAT2; [4]): 125 ± 25.4 nM
CCC(Cc1ccccc1)NCCCc1ccc(O)cc1 (centres unmarked) [Compound 208],> 400 mL/min/kg,< 6 min,,,
CC(Cc1ccccc1)NCCCc1ccc(-c2cccnc2)cc1 (centres unmarked) [Compound 211],> 400 mL/min/kg,< 6 min,,,
CC(Cc1ccccc1)NCCCc1ccc(S)cc1 (centres unmarked) [Compound 217],,,,,Microsomal stability assays: Clearance [2]: 170 mL/min/kg
CC(Cc1ccccc1)NCCCc1ccc(Br)cc1 (centres unmarked) [Compound 219],,,> 400 mL/min/kg,< 6 min,
CC(Cc1ccccc1)NCCCc1ccc(O)cc1 (centres unmarked) [Compound 224],,,> 400 mL/min/kg,< 6 min,
CC(Cc1ccccc1)N(CCCc1ccc(O)cc1)CCCc1ccc(O)cc1 (centres unmarked) [Compound 225],,,,,Ki (VMAT2; [4]): 4.99 ± 1.19 nM
